Source: patent publication US20250064804A1, “COMBINATION THERAPY FOR TREATING ABNORMAL CELL GROWTH” (Verastem, Inc., priority 2021, published 2025)

How the values were obtained:
[1] = tested on: human KRAS mutant pancreatic cancer cell lines; assay: Proliferation assay (live cell counting) with Bliss synergy analysis; type: cell-based; details: 5 days, panel of 4 cell lines, 2D conditions
Protocol: Parental human KRAS mutant pancreatic cancer cell lines were grown in 2D conditions. Briefly, cells were seeded in 96-well plates and after an overnight incubation (17-22 hours), cells were treated with the RAF/MEK clamp avutometinib (VS-6766)+/− the autophagy pathway inhibitor chloroquine (CQ) or apilimod (AP) for 5 days. Following drug treatment, live cell counting was performed and plotted to quantify effects on proliferation. Bliss synergy analysis were performed to calculate synergy scores between avutometinib+chloroquine and avutometinib+apilimod.
Proliferation assays were performed to determine whether chloroquine (CQ) or apilimod (AP) augmented the anti-proliferative activity of avutometinib in a panel of 4 human KRAS mutant pancreatic cancer cell lines (FIG. 2). Following drug treatment, live cell counting was performed and plotted to quantify effects on proliferation. Heatmaps indicating BLISS synergy scores are shown (Red=synergy, white=additivity, green=antagonism).

[2] = tested on: Human KRAS mutant pancreatic cancer cell lines stably expressing a tandem fluorescent GFP-LC3-RFP-LC3ΔG reporter; assay: Autophagic flux (GFP-LC3-RFP-LC3ΔG reporter, flow cytometry); type: cell-based; details: 1 μM avutometinib, 24 hours, vs vehicle (DMSO); all 3 cell lines tested; 2D conditions
Protocol: Human KRAS mutant pancreatic cancer cell lines stably expressing a tandem fluorescent GFP-LC3-RFP-LC3ΔG reporter were grown in 2D conditions. Briefly, cells were seeded in 96-well plates and after an overnight incubation (17-22 hours), cells were treated with 1 μM of the RAF/MEK clamp avutometinib (VS-6766) for 24 hours. Following treatment, cells were collected and changes in autophagic flux were measured by flow cytometry. Autophagic flux was quantified by calculating the ratio of RFP/GFP in cell lines tested. Autophagic flux was assessed in a panel of 3 human KRAS mutant pancreatic cancer cell lines stably expressing a tandem fluorescent GFP-LC3-RFP-LC3ΔG reporter (FIG. 1). […] In FIG. 1, human KRAS mutant pancreatic cancer cell lines stably expressing a tandem fluorescent GFP-LC3-RFP-LC3ΔG reporter were treated with vehicle (DMSO) or avutometinib for 24 hours. Following treatment, cells were collected and changes in autophagic flux were measured by flow cytometry. Autophagic flux was quantified by calculating the ratio of RFP/GFP in cell lines tested.

CNS(=O)(=O)Nc1nccc(Cc2c(C)c3ccc(Oc4ncccn4)cc3oc2=O)c1F [avutometinib]
Bliss synergy with apilimod in reducing cell viability ([1]; avutometinib + apilimod (AP)): synergistic | Bliss synergy with chloroquine in reducing cell viability ([1]; avutometinib + chloroquine (CQ)): synergistic | increase of autophagic flux (ratio of RFP/GFP) [2]: two-to six
